Patent publication US20220361496A1, “HERBICIDE COMPOSITIONS” (UPL CORPORATION LIMITED, priority 2019, published 2022)

Columns and labels:
Format in all cases: in vivo
Brachiaria plantaginea = assay: Pre-emergence herbicidal efficacy, % control of Brachiaria plantaginea; details: for % Control 35 DAA Brachiaria plantaginea: 35 DAA (Table 3)
Protocol: (§1) Experiments were carried out evaluate the efficacy, selectivity and synergism of propisochlor combinations when applied at soybean pre-emergence.
(§2) The evaluation for the damage on undesired weeds caused by the compositions was carried out using a scale from 0 to 100%, compared to the untreated control plants. Here, 0 means no damage and 100 means complete destruction of the plants.
(§3) The tables 1 below relate to the herbicidal activity, of the individual actives and the combinations applied in pre-emergence application at 35 days after administration (DAA) treatment.

Spermacoce verticillata = assay: Pre-emergence herbicidal efficacy, % weed control of Spermacoce verticillata
Protocol: as §1, §2, §3

Ipomoea hederifolia = assay: Pre-emergence herbicidal efficacy, % weed control of Ipomoea hederifolia
Protocol: as §1, §2, §3

Cenchrus echinatus = assay: Pre-emergence herbicidal efficacy, % control of Cenchrus echinatus
Protocol: as §1, §2

Brachiaria decumbens = assay: Pre-emergence herbicidal efficacy, % control of Brachiaria decumbens
Protocol: as §1, §2

Ipomoea grandifolia = assay: Pre-emergence herbicidal efficacy, % control of Ipomoea grandifolia
Protocol: as §1, §2

## CCOc1nc(F)cc2nc(S(=O)(=O)Nc3c(Cl)cccc3Cl)nn12 [Diclosulam]
Brachiaria plantaginea; 20 g ai/ha
  % Control of Brachiaria plantaginea 35 DAA: 50.0%

## Cc1nn(-c2cc(NS(C)(=O)=O)c(Cl)cc2Cl)c(=O)n1C(F)F [Sulfentrazone]
Brachiaria plantaginea; 150 g ai/ha
  % Control 35 DAA Brachiaria plantaginea: 65.00%
Spermacoce verticillata; 75 g ai/ha
  % Weed control 35 DAA Spermacoce verticillata: 92.25%
Ipomoea hederifolia; 75 g ai/ha
  % Weed control 35 DAA Ipomoea hederifolia: 98.00%

## CC(C)C1(C)N=C(c2ncccc2C(=O)O)NC1=O (stereo not drawn) [imazapyr]
Cenchrus echinatus; 26.6 g ai/ha
  % Control - Cenchrus echinatus 7 DAA: 3.8%
  % Control - Cenchrus echinatus 28 DAA: 0.0%
  % Control - Cenchrus echinatus 35 DAA: 0.0%
Brachiaria decumbens; 26.6 g ai/ha
  % Control of Brachiaria decumbens 7 DAA: 30%
  % Control of Brachiaria decumbens 14 DAA: 12.5%
  % Control of Brachiaria decumbens 21 DAA: 6.3%
  % Control of Brachiaria decumbens 28 DAA: 2.5%
Ipomoea grandifolia; 66.6 g ai/ha
  % Control of Ipomoea grandifolia 7 DAA: 16.3%
  % Control of Ipomoea grandifolia 14 DAA: 30.0%
  % Control of Ipomoea grandifolia 21 DAA: 51.3%
  % Control of Ipomoea grandifolia 28 DAA: 62.5%
  % Control of Ipomoea grandifolia 35 DAA: 63.8%

## CC(C)C1(C)N=C(c2nc3ccccc3cc2C(=O)O)NC1=O (stereo not drawn) [imazaquin]
Cenchrus echinatus; 80.5 g ai/ha
  % Control - Cenchrus echinatus 7 DAA: 18.8%
  % Control - Cenchrus echinatus 28 DAA: 10.0%
  % Control - Cenchrus echinatus 35 DAA: 6.3%
Brachiaria decumbens; 80.5 g ai/ha
  % Control of Brachiaria decumbens 7 DAA: 30%
  % Control of Brachiaria decumbens 14 DAA: 22.5%
  % Control of Brachiaria decumbens 21 DAA: 21.3%
  % Control of Brachiaria decumbens 28 DAA: 18.8%

## CCc1cccc(C)c1N(COC(C)C)C(=O)CCl [propisochlor]
Cenchrus echinatus; 540.0 g ai/ha
  % Control - Cenchrus echinatus 7 DAA: 91.3%
  % Control - Cenchrus echinatus 28 DAA: 75.8%
  % Control - Cenchrus echinatus 35 DAA: 65.0%
Cenchrus echinatus; 1080.0 g ai/ha
  % Control - Cenchrus echinatus 7 DAA: 95.3%
  % Control - Cenchrus echinatus 28 DAA: 85.0%
  % Control - Cenchrus echinatus 35 DAA: 80.0%
Brachiaria plantaginea; 1200 g ai/ha
  % Control of Brachiaria plantaginea 35 DAA: 84.50%
  % Control 35 DAA Brachiaria plantaginea: 84.50%
Brachiaria decumbens; 540 g ai/ha
  % Control of Brachiaria decumbens 7 DAA: 89.5%
  % Control of Brachiaria decumbens 14 DAA: 85.8%
  % Control of Brachiaria decumbens 21 DAA: 78.8%
  % Control of Brachiaria decumbens 28 DAA: 70%
Brachiaria decumbens; 1080 g ai/ha
  % Control of Brachiaria decumbens 7 DAA: 92.8%
  % Control of Brachiaria decumbens 14 DAA: 91%
  % Control of Brachiaria decumbens 21 DAA: 85%
  % Control of Brachiaria decumbens 28 DAA: 76.3%
Spermacoce verticillata; 525 g ai/ha
  % Weed control 35 DAA Spermacoce verticillata: 92.75%
Spermacoce verticillata; 675 g ai/ha
  % Weed control 35 DAA Spermacoce verticillata: 95.75%
Ipomoea hederifolia; 525 g ai/ha
  % Weed control 35 DAA Ipomoea hederifolia: 26.25%
Ipomoea hederifolia; 675 g ai/ha
  % Weed control 35 DAA Ipomoea hederifolia: 27%
Ipomoea grandifolia; 540 g ai/ha
  % Control of Ipomoea grandifolia 7 DAA: 81.3%
  % Control of Ipomoea grandifolia 14 DAA: 87.0%
  % Control of Ipomoea grandifolia 21 DAA: 87.5%
  % Control of Ipomoea grandifolia 28 DAA: 91.3%
  % Control of Ipomoea grandifolia 35 DAA: 91.8%
